This assay has as its target T1, acyl-CoA:cholesterol acyltransferase (ACAT) (Oryctolagus cuniculus, UniProt G1SFD9).
T1 construct: a tissue preparation containing rabbit intestinal microsomes; from tissue; host or cells: rabbit intestinal microsomes
T1 sequence (G1SFD9 1-524): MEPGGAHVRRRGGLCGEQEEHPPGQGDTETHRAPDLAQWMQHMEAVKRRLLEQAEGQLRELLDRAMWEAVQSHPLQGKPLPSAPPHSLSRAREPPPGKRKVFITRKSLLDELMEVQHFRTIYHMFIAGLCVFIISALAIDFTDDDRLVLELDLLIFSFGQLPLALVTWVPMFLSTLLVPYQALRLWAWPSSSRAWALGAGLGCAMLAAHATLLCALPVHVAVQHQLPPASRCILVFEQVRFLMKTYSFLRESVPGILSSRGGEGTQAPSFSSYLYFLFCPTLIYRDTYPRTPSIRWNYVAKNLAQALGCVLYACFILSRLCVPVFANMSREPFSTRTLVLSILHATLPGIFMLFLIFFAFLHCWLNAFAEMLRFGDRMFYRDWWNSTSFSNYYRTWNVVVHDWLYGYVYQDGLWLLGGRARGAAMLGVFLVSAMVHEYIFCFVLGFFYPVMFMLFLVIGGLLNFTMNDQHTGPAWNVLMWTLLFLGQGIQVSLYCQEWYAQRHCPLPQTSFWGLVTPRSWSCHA
Put plainly: ACAT inhibition in vitro: radiolabeled cholesterol oleate formed from radiolabeled oleic acid in rabbit intestinal microsomes. It is filed as biochemical. The settings on record: concentration required to inhibit 50% […] of the enzyme. On the procedure: The ability of representative compounds of the present invention to inhibit ACAT was measured using an in vitro test more fully described in Field, F. J. and Salone, R. G., Biochemica et Biophysica 712:557-570 (1982). The test assesses the ability of a test compound to inhibit the acylation of cholesterol by oleic acid by measuring the amount of radiolabeled cholesterol oleate formed from radiolabeled oleic acid in a tissue preparation containing rabbit intestinal microsomes.
The data appear in Table 1 where they are expressed in IC50 values; i.e., the concentration of test compound required to inhibit 50% […] of the enzyme.

Structures are written as SMILES.

Broadly, the IC50 is the concentration that inhibits the measured activity by half. Low values mean inhibition by little substance, high ones a need for much substance. As to `CCCCCCCN(CC(c1ccccc1)c1ccccc1)C(=O)Nc1c(C)cccc1C` [Example 12, N'-[(2,6-dimethyl)phenyl]-N-heptyl-N-[(2,2-diphenyl)ethyl]urea], the IC50 was found to be 1300 nM.

Regarding `O=C(Nc1ccc(F)cc1F)N(Cc1ccccc1)CC1(c2ccccc2)CCCC1` [Example 4, N'-(2,4-difluorophenyl)-N-benzyl-N-[(1-phenylcyclopentyl)methyl]urea], the half-maximal inhibitory concentration (IC50) turned out to be 90 nM.

For `O=C(Nc1ccc(F)cc1F)N(Cc1ccccc1)CC(c1ccccc1)c1ccccc1` [Example 1, N'-(2,4-difluorophenyl)-N-benzyl-N-[(2,2-diphenyl)ethyl]urea], the IC50 turned out to be 290 nM.

For the molecule `CC(C)c1cccc(C(C)C)c1NC(=O)N(Cc1ccccc1)CC(c1ccccc1)c1ccccc1` [Example 3, N'-[2,6-bis(1-methylethyl)phenyl]-N-benzyl-N-[(2,2-diphenyl)ethyl]urea], the IC50 stood at 1300 nM.

Molecule `O=C(Nc1c(Cl)cccc1Cl)N(Cc1ccccc1)CC1(c2ccccc2)CCCC1` [Example 5, N'-(2,6-dichlorophenyl)-N-benzyl-N-[(1-phenylcyclopentyl)methyl]urea] had a half-inhibitory concentration (IC50) of 51 nM.

As for `CC(C)c1cccc(C(C)C)c1NC(=O)N(Cc1ccccc1)CC1(c2ccccc2)CCCC1` [Example 7, N'-[2,6-bis(1-methylethyl)phenyl]-N-benzyl-N-[(1-phenylcyclopentyl)methyl]urea], the 50% inhibitory concentration (IC50) came out at 170 nM.

`Cc1cc(C)c(NC(=O)N(Cc2ccccc2)CC2(c3ccccc3)CCCC2)c(C)c1` [Example 6, N'-(2,4,6-trimethylphenyl)-N-benzyl-N-[(1-phenylcyclopentyl)methyl]urea]: the 50% inhibitory concentration (IC50) was 80 nM.

`Cc1cccc(C)c1NC(=O)N(Cc1ccccc1)CC(c1ccccc1)c1ccccc1` [Example 2, N'-[(2,6-dimethyl)phenyl]-N-benzyl-N-[(2,2-diphenyl)ethyl]urea]: the concentration for half-maximal inhibition (IC50) was 1370 nM.

Consider `CCCCCCCN(CC1(c2ccccc2)CCCC1)C(=O)Nc1ccc(F)cc1F` [Example 11, N'-(2,4-difluorophenyl)-N-heptyl-N-[(1-phenylcyclopentyl)methyl]urea], for which inhibition was half-maximal at 310 nM (IC50).

On to `CCCCCCCN(CC1(c2ccccc2)CCCC1)C(=O)Nc1c(C)cccc1C` [Example 10], for which the half-inhibitory concentration (IC50) is 61 nM.

As for `CCCCCCCN(CC1(c2ccccc2)CCCC1)C(=O)Nc1c(C(C)C)cccc1C(C)C` [Example 9, N'-[2,6-bis(1-methylethyl)phenyl]-N-heptyl-N-[(1phenylcyclopentyl)methyl]urea], the half-maximal inhibitory concentration (IC50) is 110 nM.

`Cc1cccc(C)c1NC(=O)N(Cc1ccccc1)CC1(c2ccccc2)CCCC1` [Example 8, N'-[(2,6-dimethyl)phenyl]-N-benzyl-N-[(1-phenylcyclopentyl)methyl]urea] registered a concentration for half-maximal inhibition (IC50) of 59 nM.

Molecule `CCCCCCCN(CC(c1ccccc1)c1ccccc1)C(=O)Nc1ccc(F)cc1F` [Example 13, N'-(2,4-difluorophenyl)-N-heptyl-N-[(2,2-diphenyl)ethyl]urea] had an IC50 of 170 nM.

For the origin of these results see patent US4994465A, “Antihyperlipidemic and antiatherosclerotic trisubstituted urea compounds” (Warner-Lambert Company, priority 1990, dated 1991).
